Assay results published in US20240423949A1, “APPLICATION OF SALVIANOLIC ACID B IN PREPARING ANTI-ROTAVIRUS PREPARATION” (GUANGDONG MEDICAL UNIVERSITY, priority 2023, published 2024).

Experiments:
[1] = tested on: RV structural protein VP6 gene expression; assay: Gene expression level of RV structural protein VP6 in RV infected MA104 cells (real time PCR); type: cell-based, rotavirus
Protocol: (1) In order to further verify whether salvianolic acid B has an inhibitory effect on RV synthesis, a drug group (MA104 cells after RV infection were treated with different concentrations of salvianolic acid B), a ribavirin group, a normal group, and an RV group were set up. The supernatant was removed and PBS rinse was performed twice. 1 mL of Trizol reagent was added to each well and allowed to stand for 5 minutes. After blowing the cells with a gun tip, they were collected in a 1.5 mL enzyme free EP tube. 200 μL of chloroform was add to the tube. After 15 seconds of vortex shock, the tube was placed at room temperature for 5 min, and centrifuged (4° C., 12000 r/min for 15 min). The centrifuged sample was divided into three layers, namely, the colorless upper layer, the white middle layer and the red lower layer. […]
Real time quantitative PCR was performed using SYBR Green I fluorescence labeling to detect the expression levels of VP6 in the drug group, ribavirin group, normal group, and RV group, SYBR® Premix Pro Taq HS qPCR Kit II reagent kit was adopted, and GAPDH was selected as an internal reference. In the experiment, a real-time fluorescent quantitative PCR amplification reaction system was prepared according to the following table with a dedicated Real-time PCR plate of Axygen, and the reaction solution was prepared on ice (the total reaction was is 10 μL).

MA104 cells = assay: Toxicity of salvianolic acid B on MA104 cells (MTT assay); type: cell-based, Rhesus monkey; details: 72 h; for Toxicity to MA104 cells: concentration range 0-256 μM
Protocol: When the MA104 cells grew to monolayers, the cells were digested, centrifuged and resuspended, and the suspension was further diluted and then 10 μL was taken and counted on a blood cell counting plate, and the required cell volume was calculated. Cell plating was then performed in a 96-well plate with 100 μL of the cell suspension per well at a cell density of 8×10^4 per mL. Cells grown to monolayers were treated with different concentrations of salvianolic acid B for 72 h, and the toxicity of salvianolic acid B on MA104 cells was detected by MTT assay. 10 μL of MTT solution was added to each well, and the mixture was incubated in the incubator for 3-4 h. Then, the 96-well plate was taken out, and the culture solution in the well was carefully aspirated from the wells. 150 μL of DMSO was added to each well, and the mixture was shaken at a low speed for 10 min on a shaker to fully dissolve the crystal, and the absorbance was detected and recorded at a wavelength of 490 nm.
The formula for the relative cell survival rate is:
Cell survival rate={(Aexperimental group−Ablank)/(Acontrol group−Ablank)×100%}

Wa strain rotavirus [2] = assay: Anti-RV adsorption effect in MA104 cells (drug before virus, MTT assay); type: cell-based; details: 16-256 μM
Protocol: Salvianolic acid B solutions of different concentrations were added into a 96-well culture plate of MA104 cells grown into monolayers, wherein 4 wells were repeated for each concentration of the solution, with 100 μL per well. An equal volume of ribavirin was added to the positive control group, and only an equal volume of DMEM culture solution was added to both the normal cell control group and the virus control group, and same were placed in a 5% CO2 incubator at 37° C. for incubation for 2 h. […] 1/10 volume of MTT solution was added to each well, after being incubated for 3-4 h in the incubator, the 96-well plate was taken out, the culture solution in the well was carefully aspirated, 150 uL of DMSO was added to each well, and same was placed on a shaker and shaken at a low speed for 10 min, so that the crystal was fully dissolved; and the absorbance was detected and recorded at a wavelength of 490 nm. The drug-to-virus inhibition rates were calculated and the experiment was repeated 3 times. […]

Wa strain rotavirus [3] = assay: Anti-RV biosynthesis effect in MA104 cells (drug after virus, MTT assay); type: cell-based; details: 64-256 μM, 100 TCID50, 72 h
Protocol: 100 TCID50 virus solution (virus with 20 μg/mL trypsin at 37° C. for 30 min) was added to a 96-well culture plate of MA104 cells grown to monolayers, with 100 μL per well, and the cells were rinsed twice with PBS before addition. A normal cell control group was set, an equal volume of DMEM culture solution was added, then the 96-well plate was placed in a 5% CO2 incubator at 37° C. for incubation for 2 h, the virus solution was aspirated, different concentrations of salvianolic acid B and ribavirin were added, respectively, with 100 μL per well, and a virus control group was set and added with only a maintenance solution, with 100 μL per well. The 96-well plate was placed in a 5% CO2 incubator at 37° C. for incubation and continuous observation for 72 h and then detected by the MTT assay. A 1/10 volume of MTT solution was added to each well. After being incubated for 3-4 h in the incubator, the 96-well plate was removed, the culture solution in the well was carefully aspirated, and 150 μL of DMSO was added to each well. The plate was shaken at a low speed for 10 min on a shaker to fully dissolve the crystal, and the absorbance was detected and recorded at a wavelength of 490 nm. The drug-to-virus inhibition rates were calculated and the experiment was repeated 3 times. […]

Wa strain rotavirus [4] = assay: Direct inhibitory effect on RV (drug pre-mixed with virus, MA104 cells, MTT assay); type: cell-based
Protocol: Different concentrations of salvianolic acid B solution with 50TCID50 virus solution (virus with 20 μg/mL trypsin at 37° C. for 30 min), DMEM with 50TCID50 virus solution, ribavirin with 50TCID50 virus solution were mixed in equal volumes and incubated in a 5% CO2 incubator at 37° C. for 2 hours. The cells were rinsed twice with PBS and added to a 96-well culture plate of MA104 cells grown to monolayers, and for the normal cell control group, an equal volume of DMEM was added. After incubated at 37° C. and 5% CO2 for 2 h, the mixed solution was aspirated and the maintenance solution was added, with 100 μL per well. The 96-well plate was placed in a 5% CO2 incubator at 37° C. for continuous observation for 72 h and then detected by the MTT assay. A 1/10 volume of MTT solution was added to each well. After incubated for 3-4 h in the incubator, the 96-well plate was removed, the culture solution in the well was carefully aspirated, and 150 µL of DMSO was added to each well. The plate was shaken at a low speed for 10 min on a shaker to fully dissolve the crystal, and the absorbance was detected and recorded at a wavelength of 490 nm. The drug-to-virus inhibition rates were calculated and the experiment was repeated 3 times.
Virus inhibition rate (%)=(average A value of drug group−average A value of virus control group)/(average A value of normal cell control group−average A value of virus control group)×100%

Compound	Gene expression of VP6 compared to the RV group ([1]; ribavirin group)	Cell survival rate (MA104 cells; 512 μM, MA104 cells)	Toxicity to MA104 cells (MA104 cells)	Toxicity to MA104 cells (MA104 cells; listed as Salvianolic acid B)	Anti-RV adsorption effect (conclusion) (Wa strain rotavirus [2])	Virus inhibition rate (anti-RV adsorption) (Wa strain rotavirus [2]; 100TCID50, 72 h)	Virus inhibition rate (anti-RV biosynthesis) (Wa strain rotavirus [3])	Direct inhibitory effect on RV (conclusion) (Wa strain rotavirus [4]; 16-256 μM)	inhibition at 16 µM (Wa strain rotavirus [4]; Rotavirus, MA104, 16 μM (first of five values over 16-256 μM), 50TCID50, 72 h, read-out: Inhibitory rate directly inhibiting RV)	inhibition at 32 µM (Wa strain rotavirus [4]; Rotavirus, MA104, 32 μM (second of five values over 16-256 μM), 50TCID50, 72 h, read-out: Inhibitory rate directly inhibiting RV)	inhibition at 64 µM (Wa strain rotavirus [4]; Rotavirus, MA104, 64 μM (third of five values over 16-256 μM), 50TCID50, 72 h, read-out: Inhibitory rate directly inhibiting RV)	inhibition at 128 µM (Wa strain rotavirus [4]; Rotavirus, MA104, 128 μM (fourth of five values over 16-256 μM), 50TCID50, 72 h, read-out: Inhibitory rate directly inhibiting RV)	inhibition at 256 µM (Wa strain rotavirus [4]; Rotavirus, MA104, 256 μM (fifth of five values over 16-256 μM), 50TCID50, 72 h, read-out: Inhibitory rate directly inhibiting RV)	Expression level of VP6 compared with the RV group ([1]; 64, 128 and 256 μM, dose-response correlation)
NC(=O)c1ncn([C@@H]2O[C@H](CO)[C@@H](O)[C@H]2O)n1 [ribavirin, reference compound]	significantly reduced													
O=C(/C=C/c1ccc(O)c2c1[C@@H](C(=O)O[C@H](Cc1ccc(O)c(O)c1)C(=O)O)[C@H](c1ccc(O)c(O)c1)O2)O[C@H](Cc1ccc(O)c(O)c1)C(=O)O [salvianolic acid B, Salvianolic acid B]		below 95%	no obvious toxicity	no drug toxicity	no significant anti-RV adsorption effect	below 50%	higher than 50%	no direct inhibitory effect	14.2%	15.2%	16.5%	15.8%	12.7%	significantly reduced
